One data set relates to A549 cells. The experiment in a line: Cytotoxicity potentiation assay (topotecan). Type of data set: cell-based. As to conditions: test compound at 0.4 μM, ratio of IC50 of topotecan alone to IC50 of topotecan with test compound.
The next data set has as its target purified PARP protein (Homo sapiens, UniProt P09874). Nature of the data set: PARP enzyme inhibition assay. Type of data set: biochemical. To be noted: [32P]NAD+ incorporation, 500 μM NAD+, 25° C.; two values in a cell = tested twice; read-out: Inhibition Constant Ki.

Where “and” joins values, the source holds several entries; their conditions need not be identical. Identical values can stand only once.

purified PARP protein, sequence (P09874 whole entry): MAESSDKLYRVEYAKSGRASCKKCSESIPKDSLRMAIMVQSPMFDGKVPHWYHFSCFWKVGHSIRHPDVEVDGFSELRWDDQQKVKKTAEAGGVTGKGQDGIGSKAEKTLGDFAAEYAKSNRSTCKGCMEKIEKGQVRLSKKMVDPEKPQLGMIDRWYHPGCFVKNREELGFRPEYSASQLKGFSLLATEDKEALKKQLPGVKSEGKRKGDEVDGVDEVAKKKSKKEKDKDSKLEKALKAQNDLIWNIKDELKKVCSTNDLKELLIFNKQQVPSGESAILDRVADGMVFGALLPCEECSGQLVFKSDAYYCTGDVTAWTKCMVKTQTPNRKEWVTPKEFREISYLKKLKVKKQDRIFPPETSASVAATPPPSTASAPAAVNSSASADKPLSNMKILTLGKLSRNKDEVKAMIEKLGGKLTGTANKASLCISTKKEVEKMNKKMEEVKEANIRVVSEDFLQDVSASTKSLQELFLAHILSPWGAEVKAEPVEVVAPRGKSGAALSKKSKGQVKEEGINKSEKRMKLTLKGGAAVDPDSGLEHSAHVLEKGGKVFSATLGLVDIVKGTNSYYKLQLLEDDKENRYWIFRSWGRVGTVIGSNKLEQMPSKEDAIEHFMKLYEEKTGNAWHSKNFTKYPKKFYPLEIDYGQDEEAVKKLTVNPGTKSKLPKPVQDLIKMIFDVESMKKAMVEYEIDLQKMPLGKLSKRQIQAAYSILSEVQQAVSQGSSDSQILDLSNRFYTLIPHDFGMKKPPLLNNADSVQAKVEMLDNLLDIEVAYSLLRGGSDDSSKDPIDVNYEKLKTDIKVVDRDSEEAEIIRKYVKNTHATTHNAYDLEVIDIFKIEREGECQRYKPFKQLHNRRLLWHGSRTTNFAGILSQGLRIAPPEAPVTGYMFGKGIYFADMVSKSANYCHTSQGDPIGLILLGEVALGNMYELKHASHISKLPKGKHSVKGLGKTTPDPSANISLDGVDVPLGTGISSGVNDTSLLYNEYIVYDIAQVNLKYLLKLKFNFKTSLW

As to `O=C1NCCc2c(-c3ccc(Cl)cc3)[nH]c3cccc1c23` [GGG, 2-(4-Chloro-phenyl)-1,3,4,5-tetrahydro-azepino[5,4,3-cd]indol-6-one], the melting point lay within 250 to 252 °C. Further, in the data set with A549 cells, the “Cytotoxicity Potentiation PF50” value was found to be 1.9. Also, the Ki on purified PARP protein was found to be 4.1 nM.
The matching figures for `O=C1NCCc2c(-c3ccc(CN4CCCC4)c(F)c3)[nH]c3cccc1c23` [QQQ, 2-(3-Fluoro-4-pyrrolidin-1-ylmethyl-phenyl)-1,3,4,5-tetrahydro-azepino[5,4,3-cd]indol-6-one]: 139 to 140 °C (dec.), 2.3 and 10.2 nM.
Compound `CN(C)Cc1cccc(-c2[nH]c3cccc4c3c2CCNC4=O)c1` [Compound 22, 2-(3-(N,N-Dimethylamino)methylphenyl)-3,4,5,6-tetrahydro-1H-azepino[5,4,3-cd]indol-6-one] registered a melting point of 222 to 225 °C. Further, in the data set on A549 cells, the “Cytotoxicity Potentiation PF50” value amounted to 2.3. Moreover, the Ki at purified PARP protein was found to be 7.2 nM.
On to `CNCc1cccc(-c2[nH]c3cc(F)cc4c3c2CCNC4=O)c1` [HHHH, 8-Fluoro-2-(3-methylaminomethyl-phenyl)-1,3,4,5-tetrahydro-azepino[5,4,3-cd]indol-6-one], for which the melting point is 270 to 272 °C (dec.). In addition, in the data set with A549 cells, the “Cytotoxicity Potentiation PF50” value was 1.9. On purified PARP protein, the Ki stood at 2.2 nM.
`O=C1NCCc2c(-c3ccc(-c4ccccc4)cc3)[nH]c3cccc1c23` [VV, 2-Biphenyl-4-yl-1,3,4,5-tetrahydro-azepino[5,4,3-cd]indol-6-one]: the melting point was 277 to 279 °C (dec.). The “Cytotoxicity Potentiation PF50” value in the data set on A549 cells is 2.0. On purified PARP protein, the inhibition constant Ki came to 10 nM.
The matching figures for `CNCc1cccc(-c2[nH]c3cccc4c3c2CCNC4=O)c1` [Compound PP, 2-(3-(N-Methylamino)methylphenyl)-3,4,5,6-tetrahydro-1H-azepino[5,4,3-cd]indol-6-one]: 190 to 192 °C, 2.3 and 5.3 nM.
The matching figures for `O=C1NCCc2c(-c3ccc(CCN4CCCC4)cc3)[nH]c3cccc1c23` [MMM, 2-[4-(2-Pyrrolidin-1-yl-ethyl)-phenyl]-1,3,4,5-tetrahydro-azepino[5,4,3-cd]indol-6-one]: 228 to 229 °C (dec.), 2.3 and 9.4 nM.
The compound `O=C1NCCc2c(-c3cccc(C(F)(F)F)c3)[nH]c3cccc1c23` [Compound 30, 2-(3-Trifluoromethyl-phenyl)-1,3,4,5-tetrahydro-azepino[5,4,3-cd]indol-6-one] returned a melting point of 212.5 to 213.5 °C. For the same compound, in the data set on A549 cells, the “Cytotoxicity Potentiation PF50” value is given as 2.4. Moreover, at purified PARP protein, the inhibitory constant (Ki) was 6.3 nM.
Take `CNCc1ccc(-c2[nH]c3cccc4c3c2CCNC4=O)cc1` [OO, 2-(4-(N-Methylamino)methylphenyl)-3,4,5,6-tetrahydro-1H-azepino[5,4,3-cd]indol-6-one]: the “Cytotoxicity Potentiation PF50” value with A549 cells came to 2.4. For the same compound, the inhibition constant (Ki) at purified PARP protein came out at 4.1 nM.
The compound `O=C1NCCc2c(-c3cccc(Oc4ccc(F)cc4)c3)[nH]c3cccc1c23` [UU, 2-[3-(4-Fluoro-phenoxy)-phenyl]-1,3,4,5-tetrahydro-azepino[5,4,3-cd]indol-6-one] returned a melting point of 240 to 241 °C. Also, the “Cytotoxicity Potentiation PF50” value in the data set on A549 cells is on record as 1.8. For the same compound, the Ki on purified PARP protein worked out at 10 nM.
The matching figures for `O=C1NCCc2c(-c3cccc(CN4CCCC4)c3)[nH]c3cccc1c23` [TTTT, 2-(3-Pyrrolidin-1-ylmethylphenyl)-3,4,5,6-tetrahydro-1H-azepino[5,4,3-cd]indol-6-one]: 219 to 223 °C (dec.), 1.6 and 7.4 nM.
Take `O=C1NN=Cc2c[nH]c3cccc1c23` [Compound 27, 1,5-Dihydro-[1,2]diazepino[4,5,6-cd]-indol-6-one]: the “Cytotoxicity Potentiation PF50” value in the data set on A549 cells is 1.3. Further, the Ki at purified PARP protein stood at 3.4 nM.
As to `O=C1NN=C(CCc2ccccc2)c2c[nH]c3cccc1c23` [Compound 29, 1,5-Dihydro-3-phenethyl-[1,2]diazepino[4,5,6-cd]-indol-6-one], the “Cytotoxicity Potentiation PF50” value in the data set with A549 cells worked out at 1. Moreover, the Ki at purified PARP protein amounted to 8 nM.
Take `O=C1NN=C(c2ccccc2)c2c[nH]c3cccc1c23` [Compound 28, 1,5-Dihydro-3-phenyl-[1,2]diazepino[4,5,6-cd]-indol-6-one]: the “Cytotoxicity Potentiation PF50” value with A549 cells is given as 1. The inhibitory constant (Ki) at purified PARP protein was 4 nM and 3.8 nM.
The compound `CN(C)Cc1ccc(-c2[nH]c3cccc4c3c2CCNC4=O)cc1F` [Compound PPP, 2-(4-Dimethylaminomethyl-3-fluoro-phenyl)-1,3,4,5-tetrahydro-azepino[5,4,3-cd]indol-6-one] showed a melting point of 221.5 to 222.5 °C. The “Cytotoxicity Potentiation PF50” value with A549 cells is 2.1. The Ki on purified PARP protein stood at 9.4 nM.
For `O=C1NCCc2c(-c3cccc(CO)c3)[nH]c3cccc1c23` [Compound 16, 2-(3-Hydroxymethylphenyl)-3,4,5,6-tetrahydro-1H-azepino[5,4,3-cd]indol-6-one], the melting point is 258 to 259 °C (dec.). For the same compound, in the data set on A549 cells, the “Cytotoxicity Potentiation PF50” value is reported as 1.9. Further, the Ki at purified PARP protein was found to be 5 nM.
Turning to `O=C1NCCc2c(-c3ccc(CN4CCCC4)cc3)[nH]c3cc(F)cc1c23` [JJJJ, 8-Fluoro-2-(4-pyrrolidin-1-ylmethyl-phenyl)-1,3,4,5-tetrahydro-azepino[5,4,3-cd]indol-6-one], the “Cytotoxicity Potentiation PF50” value in the data set with A549 cells worked out at 2.4. Also, at purified PARP protein, the Ki was found to be 4.4 nM.

Usually melting point stands for the temperature, or range, at which the solid turns liquid. In general, Ki refers to the equilibrium dissociation constant of an inhibitor or competing ligand from its target.

The values above are taken from patent US7429578B2, “Tricyclic inhibitors of poly(ADP-ribose) polymerases” (Agouron Pharmaceuticals, Inc., priority 1999, dated 2008).
